These results are taken from ChEMBL document CHEMBL1130170, “Orally active trifluoromethyl ketone inhibitors of human leukocyte elastase” (J Med Chem, 1997).

The target in one test is T1, Neutrophil elastase (Homo sapiens, UniProt P08246).
T1 sequence (P08246 whole entry): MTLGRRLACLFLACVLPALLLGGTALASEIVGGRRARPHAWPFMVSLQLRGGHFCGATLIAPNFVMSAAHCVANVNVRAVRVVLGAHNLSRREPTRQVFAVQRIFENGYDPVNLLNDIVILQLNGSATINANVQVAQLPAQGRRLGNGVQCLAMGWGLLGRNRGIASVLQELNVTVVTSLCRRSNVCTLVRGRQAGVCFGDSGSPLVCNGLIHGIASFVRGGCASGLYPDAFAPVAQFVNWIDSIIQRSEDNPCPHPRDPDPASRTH
Briefly: Binding affinity for human leukocyte elastase.

Test [1] has as its system Cricetinae gen. sp. As to the kind of experiment: Percent inhibition of elastase-induced lung damage by 10 mg/kg dosed orally, 30 minutes prior to the instillation of 50 ug of elastase. In kind it is functional, Cricetulus griseus. Particulars: Cricetinae gen. sp., po.
Test [2] concerns Cricetinae gen. sp. Briefly: Effective dose in the Acute Hemarrhagic Assay model after oral administration. In kind it is functional, Cricetulus griseus.

Where a SMILES comes first, the peptide text is derived from it. [ ]: non-standard residue; d: D form. The star is where a group is joined. ξ: configuration not given here. Cbz = O=C(OCc1ccccc1)*; ξV = CC(C)C(N)C(=O)O; CF3 = FC(F)(F)*; Moc = COC(=O)*

A word on the Ki: it is the equilibrium dissociation constant of an inhibitor or competing ligand from its target. Low values mean higher affinity, high ones lower affinity. By inhibition in vivo is commonly meant the drop in the measured response relative to a control, in per cent. High values mean strong suppression, low ones little suppression. In turn, `CCCNC(=O)C(F)(F)C(=O)[C@@H](NC(=O)[C@@H]1CCCN1C(=O)[C@@H](NC(=O)c1ccc(OC)cc1)C(C)C)C(C)C` displayed a Ki at Neutrophil elastase of 8.9 nM. Also, the inhibition in vivo at 10 mg/kg in the test on Cricetinae gen. sp. [1] came out at 17%. In the case of `CC(C)[C@H](NC(=O)OCc1ccccc1)C(=O)N1CCC[C@H]1C(=O)N[C@H](C(=O)C(F)(F)F)C(C)C` (Cbz-Val-Pro-Val-CF3), in the test with Cricetinae gen. sp. [1], the inhibition in vivo at 10 mg/kg came to 42%. `COc1ccc(C(=O)N[C@H](C(=O)N2CCC[C@H]2C(=O)N[C@H](C(=O)C(F)(F)F)C(C)C)C(C)C)cc1` (stereo in doubt; 1a) showed an inhibition in vivo at 10 mg/kg in the test with Cricetinae gen. sp. [1] of 70%.

`CCOC(=O)N[C@H](C(=O)N1CCC[C@H]1C(=O)N[C@H](C(=O)C(F)(F)F)C(C)C)C(C)C`: the Ki at Neutrophil elastase came to 43 nM. Besides, in the test on Cricetinae gen. sp. [1], the inhibition in vivo at 10 mg/kg came out at 74%. For `CC(C)[C@H](NC(=O)Oc1ccccc1)C(=O)N1CCC[C@H]1C(=O)N[C@H](C(=O)C(F)(F)C(=O)NCc1ccccn1)C(C)C` the same measures were 1.7 nM and 69%. Turning to `CCCCOC(=O)NCC(F)(F)C(=O)[C@@H](NC(=O)[C@@H]1CCCN1C(=O)[C@@H](NC(=O)Oc1ccccc1)C(C)C)C(C)C`, the affinity on Neutrophil elastase, expressed as Ki, was 0.35 nM. In the test on Cricetinae gen. sp. [1], this compound had an inhibition in vivo at 10 mg/kg of 0%. At Neutrophil elastase, `CC(C)[C@H](NC(=O)c1ccc(C(=O)NS(=O)(=O)c2ccccc2)cc1)C(=O)N1CCC[C@H]1C(=O)N[C@H](C(=O)C(F)(F)C(=O)NCCc1ccccc1)C(C)C` registered an inhibition constant (Ki) of 0.06 nM. On to `COC(=O)c1ccc2oc(C(=O)[C@@H](NC(=O)[C@@H]3CCCN3C(=O)[C@@H](NC(=O)OCc3ccccc3)C(C)C)C(C)C)nc2c1`, for which the inhibition constant Ki on Neutrophil elastase worked out at 0.58 nM. In the test with Cricetinae gen. sp. [1], this compound yielded an inhibition in vivo at 10 mg/kg of 34%. On to `CC(C)[C@H](NC(=O)Oc1ccccc1)C(=O)N1CCC[C@H]1C(=O)N[C@H](C(=O)C(F)(F)CNCc1ccccc1)C(C)C`, for which, in the test with Cricetinae gen. sp. [1], 10 mg/kg produced 18% inhibition in vivo. The same measure, in the same setting: for `CC(C)[C@H](NC(=O)OCc1ccccc1)C(=O)N1CCC[C@H]1C(=O)N[C@H](C(=O)C(F)(F)C(N)=O)C(C)C` the value was 17%. As to `COC(=O)c1ccc2oc(C(=O)[C@@H](NC(=O)[C@@H]3CCCN3C(=O)[C@@H](NC(=O)c3ccc(OC)cc3)C(C)C)C(C)C)nc2c1`, at Neutrophil elastase, the affinity corresponds to a Ki of 0.65 nM. For the same compound, in the test with Cricetinae gen. sp. [1], 10 mg/kg produced 0% inhibition in vivo. On to `COc1ccc(C(=O)N[C@H](C(=O)N2CCC[C@H]2C(=O)N[C@H](C(=O)C(F)(F)C(=O)NCc2ccccn2)C(C)C)C(C)C)cc1`, for which the affinity on Neutrophil elastase corresponds to a Ki of 3.1 nM. 10 mg/kg produced 43% inhibition in vivo in the test with Cricetinae gen. sp. [1].

One may read the ED50 as the dose at which the effect has come halfway, by size or by number of responders. As to `CC(C)OC(=O)N[C@H](C(=O)N1CCC[C@H]1C(=O)N[C@H](C(=O)C(F)(F)F)C(C)C)C(C)C`, the inhibitory constant (Ki) at Neutrophil elastase stood at 5.8 nM. In the test on Cricetinae gen. sp. [2], this compound yielded an ED50 of 3 mg/kg. In the test with Cricetinae gen. sp. [1], this compound had an inhibition in vivo at 10 mg/kg of 80%. Turning to `CC(C)[C@H](NC(=O)COc1ccccc1)C(=O)N1CCC[C@H]1C(=O)N[C@H](C(=O)C(F)(F)F)C(C)C`, the inhibition constant Ki at Neutrophil elastase amounted to 17 nM. In the test on Cricetinae gen. sp. [1], this compound returned an inhibition in vivo at 10 mg/kg of 8%. In the same order, the values of `CC(C)COC(=O)N[C@H](C(=O)N1CCC[C@H]1C(=O)N[C@H](C(=O)C(F)(F)F)C(C)C)C(C)C` are 20 nM and 3%. Turning to `COC(=O)N[C@H](C(=O)N1CCC[C@H]1C(=O)NC(C(=O)C(F)(F)F)C(C)C)C(C)C` (stereo partly drawn) (Moc-Val-Pro-[ξV]-CF3), the inhibition in vivo at 10 mg/kg in the test on Cricetinae gen. sp. [1] worked out at 92%. On the same count and under the same terms, then `CC(C)[C@H](NC(=O)OCc1ccccc1)C(=O)N1CCC[C@H]1C(=O)N[C@H](C(=O)C(F)(F)CNCc1ccccc1)C(C)C`, with 0%.

`COc1ccc(C(=O)N[C@H](C(=O)N2CCC[C@H]2C(=O)N[C@H](C(=O)C(F)(F)CNC(=O)c2ccccc2)C(C)C)C(C)C)cc1`: the inhibition constant (Ki) at Neutrophil elastase stood at 6.4 nM. The compound also registered an inhibition in vivo at 10 mg/kg in the test on Cricetinae gen. sp. [1] of 18%.

Turning to `CC(C)OC(=O)N[C@H](C(=O)N1CCC[C@H]1C(=O)NC(C(=O)C(F)(F)F)C(C)C)C(C)C` (stereo partly specified), on Neutrophil elastase, the Ki worked out at 33 nM. In the test with Cricetinae gen. sp. [1], this compound showed an inhibition in vivo at 10 mg/kg of 69%. In the same order, the values of `CNC(=O)C(F)(F)C(=O)[C@@H](NC(=O)[C@@H]1CCCN1C(=O)[C@@H](NC(=O)c1ccc(OC)cc1)C(C)C)C(C)C` are 3.8 nM and 25%. In the test with Cricetinae gen. sp. [1], `COc1ccc(C(=O)N[C@H](C(=O)N2CCC[C@H]2C(=O)N[C@H](C(=O)C(F)(F)CN)C(C)C)C(C)C)cc1` came in with an inhibition in vivo at 10 mg/kg of 10%. `CCCCOC(=O)NCC(F)(F)C(=O)[C@@H](NC(=O)[C@@H]1CCCN1C(=O)[C@@H](NC(=O)OCc1ccccc1)C(C)C)C(C)C` yielded an inhibitory constant (Ki) on Neutrophil elastase of 1.1 nM. In the test with Cricetinae gen. sp. [1], this compound registered an inhibition in vivo at 10 mg/kg of 0%. For `COc1ccc(C(=O)N[C@H](C(=O)N2CCC[C@H]2C(=O)N[C@H](C(=O)c2nc3cc(NC(C)=O)ccc3o2)C(C)C)C(C)C)cc1` the same measures were 8 nM and 11%. For `COC(=O)c1ccc2oc(C(=O)[C@@H](NC(=O)[C@@H]3CCCN3C(=O)[C@@H](NC(=O)Oc3ccccc3)C(C)C)C(C)C)nc2c1` the same measures were 0.64 nM and 12%. `CC(C)[C@H](NC(=O)Oc1ccccc1)C(=O)N1CCC[C@H]1C(=O)N[C@H](C(=O)C(F)(F)F)C(C)C` came in with a Ki at Neutrophil elastase of 1.5 nM. Besides, the inhibition in vivo at 10 mg/kg in the test with Cricetinae gen. sp. [1] is 93%. In the same order, the values of `COC(=O)c1ccc2nc(C(=O)[C@@H](NC(=O)[C@@H]3CCCN3C(=O)[C@@H](NC(=O)Oc3ccccc3)C(C)C)C(C)C)oc2c1` are 0.64 nM and 27%. `CNC(=O)C(F)(F)C(=O)[C@@H](NC(=O)[C@@H]1CCCN1C(=O)[C@@H](NC(=O)Oc1ccccc1)C(C)C)C(C)C` had an inhibition in vivo at 10 mg/kg with Cricetinae gen. sp. [1] of 80%. `CNC(=O)C(F)(F)C(=O)[C@@H](NC(=O)[C@@H]1CCCN1C(=O)[C@@H](NC(=O)OCc1ccccc1)C(C)C)C(C)C` displayed an inhibition in vivo at 10 mg/kg with Cricetinae gen. sp. [1] of 7%. As for `CC(C)[C@H](NC(=O)Oc1ccccc1)C(=O)N1CCC[C@H]1C(=O)N[C@H](C(=O)C(F)(F)CN)C(C)C`, 10 mg/kg produced 45% inhibition in vivo in the test with Cricetinae gen. sp. [1]. Regarding `COc1ccc(C(=O)N[C@H](C(=O)N2CCC[C@H]2C(=O)N[C@@H](C(=O)C(F)(F)C(=O)NCc2ccccn2)C(C)C)C(C)C)cc1`, the inhibitory constant (Ki) at Neutrophil elastase amounted to 58 nM. This compound also returned an inhibition in vivo at 10 mg/kg in the test on Cricetinae gen. sp. [1] of 31%. For `CC(C)[C@H](NC(=O)[C@@H]1CCCN1C(=O)[C@@H](NC(=O)OCc1ccccc1)C(C)C)C(=O)c1nc2ccccc2o1` the same measures were 4.7 nM and 0%. In the same order, the values of `CC(=O)NCC(F)(F)C(=O)[C@@H](NC(=O)[C@@H]1CCCN1C(=O)[C@@H](NC(=O)Oc1ccccc1)C(C)C)C(C)C` are 2.3 nM and 42%. In the case of `COc1ccc(C(=O)N[C@H](C(=O)N2CCC[C@H]2C(=O)N[C@H](C(=O)C(F)(F)CNCc2ccccc2)C(C)C)C(C)C)cc1`, the inhibition in vivo at 10 mg/kg with Cricetinae gen. sp. [1] amounted to 17%. `CC(C)[C@H](NC(=O)OC1CCCC1)C(=O)N1CCC[C@H]1C(=O)N[C@H](C(=O)C(F)(F)F)C(C)C` came in with an inhibition constant (Ki) on Neutrophil elastase of 1.9 nM. The same compound displayed an inhibition in vivo at 10 mg/kg with Cricetinae gen. sp. [1] of 43%.

In the case of `CCCCOC(=O)NCC(F)(F)C(=O)[C@@H](NC(=O)[C@@H]1CCCN1C(=O)[C@@H](NC(=O)c1ccc(OC)cc1)C(C)C)C(C)C`, on Neutrophil elastase, the affinity corresponds to a Ki of 3.4 nM. In the test with Cricetinae gen. sp. [1], this compound gave an inhibition in vivo at 10 mg/kg of 24%.

For the compound `CC(C)[C@H](NC(=O)Oc1ccccc1)C(=O)N1CCC[C@H]1C(=O)N[C@H](C(=O)C(F)(F)CNC(=O)c1cccnc1)C(C)C`, the affinity at Neutrophil elastase corresponds to a Ki of 0.35 nM. In the test on Cricetinae gen. sp. [1], this compound gave an inhibition in vivo at 10 mg/kg of 46%.
